According to ChEMBL document CHEMBL4368919, “Identification of the Metabolic Profile of the α-Tubulin-Binding Natural Product (-)-Pironetin” (J Med Chem, 2019):

Key:
[1] = Drug level in human liver microsomes treated with pironetin assessed as compound formation after 30 mins by LC-MS/MS analysis; assay type: ADME, Microsome; conditions: 0.5 h
[2] = biological target: T1, Tubulin alpha (Homo sapiens) (UniProt P0DPH7+P68366+Q71U36+P68363+Q9BQE3+Q6PEY2+A6NHL2+Q9NY65); experiment: Inhibition of tubulin alpha in human A2780CP cells assessed as cell growth inhibition after 48 hrs by MTT assay; assay type: cell-based
[3] = biological target: T1, Tubulin alpha (Homo sapiens); experiment: Inhibition of tubulin alpha in human A2780 cells assessed as cell growth inhibition after 48 hrs by MTT assay; assay type: cell-based
3Y1 cell line = experiment: Cell cycle arrest in rat 3Y1 cells assessed as accumulation at G2/M phase after 24 hrs by propidium iodide-staining based flow cytometry relative to (-)-Pironetin; assay type: ADME; conditions: 3y1, 24 h
Cytochrome P450 2C9 = Cytochrome P450 2C9 (Homo sapiens, UniProt P11712); experiment: Inhibition of CYP2C9 (unknown origin) using tolbutamide as substrate; assay type: ADME
Chain of Cytochrome P450 2C9 (P11712 whole entry): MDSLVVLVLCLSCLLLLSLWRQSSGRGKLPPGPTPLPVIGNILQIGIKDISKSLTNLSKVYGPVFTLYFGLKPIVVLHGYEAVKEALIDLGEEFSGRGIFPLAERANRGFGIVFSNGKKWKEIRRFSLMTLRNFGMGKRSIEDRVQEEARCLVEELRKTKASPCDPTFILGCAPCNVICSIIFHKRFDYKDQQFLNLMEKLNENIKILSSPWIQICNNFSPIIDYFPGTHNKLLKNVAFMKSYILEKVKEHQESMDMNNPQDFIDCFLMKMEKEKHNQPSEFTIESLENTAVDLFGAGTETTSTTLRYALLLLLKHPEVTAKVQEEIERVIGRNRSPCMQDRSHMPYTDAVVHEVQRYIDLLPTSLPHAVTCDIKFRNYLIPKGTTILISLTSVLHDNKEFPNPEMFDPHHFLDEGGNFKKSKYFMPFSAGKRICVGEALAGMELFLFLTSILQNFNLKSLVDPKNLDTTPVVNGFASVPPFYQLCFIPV

[4] = Inhibition of tubulin alpha in human A2780 cells assessed as reduction in cell growth
Cytochrome P450 3A4 [5] = biological target: T2, Cytochrome P450 3A4 (Homo sapiens, UniProt P08684); experiment: Inhibition of CYP3A4 (unknown origin) using midazolam as substrate; assay type: ADME
T2 sequence (P08684 whole entry): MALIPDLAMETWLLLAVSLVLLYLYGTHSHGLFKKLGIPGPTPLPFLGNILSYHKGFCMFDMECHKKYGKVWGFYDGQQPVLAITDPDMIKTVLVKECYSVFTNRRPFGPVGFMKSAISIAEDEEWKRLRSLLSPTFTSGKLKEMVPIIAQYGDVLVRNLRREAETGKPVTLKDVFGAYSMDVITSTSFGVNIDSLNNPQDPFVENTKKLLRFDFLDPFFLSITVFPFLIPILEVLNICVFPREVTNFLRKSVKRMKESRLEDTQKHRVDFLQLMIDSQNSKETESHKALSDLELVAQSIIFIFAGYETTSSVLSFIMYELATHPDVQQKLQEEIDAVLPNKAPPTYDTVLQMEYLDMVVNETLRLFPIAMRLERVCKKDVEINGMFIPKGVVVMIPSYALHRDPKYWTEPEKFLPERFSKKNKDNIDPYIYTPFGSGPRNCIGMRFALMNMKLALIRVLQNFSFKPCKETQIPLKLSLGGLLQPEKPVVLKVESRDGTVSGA

[6] = Half life in mouse liver microsomes in presence of NADPH regeneration system by LC-MS/MS analysis; assay type: ADME, Microsome
[7] = Stability in human serum assessed as compound remaining at 1.10 mg after 24 hrs by HPLC analysis; assay type: ADME, cell-free; conditions: read-out: Stability
[8] = Stability in mouse serum assessed as compound remaining at 1.30 ml after 24 hrs by HPLC analysis; assay type: ADME, cell-free; conditions: read-out: Stability
[9] = Half life in human liver microsomes in presence of NADPH regeneration system by LC-MS/MS analysis; assay type: ADME, Microsome
[10] = Half life in rat liver microsomes in presence of NADPH regeneration system by LC-MS/MS analysis; assay type: ADME, Microsome
[11] = Protein binding in rat plasma; assay type: ADME, cell-free; conditions: read-out: PPB (converted)
[12] = Stability in rat serum assessed as compound remaining after 24 hrs; assay type: ADME, cell-free; conditions: read-out: Stability
Cytochrome P450 3A4 [13] = biological target: T2, Cytochrome P450 3A4; experiment: Inhibition of CYP3A4 (unknown origin) using testosterone as substrate; assay type: ADME
Cytochrome P450 2D6 = Cytochrome P450 2D6 (Homo sapiens, UniProt P10635); experiment: Inhibition of CYP2D6 (unknown origin) using dextromethorphan as substrate; assay type: ADME
Chain of Cytochrome P450 2D6 (P10635 whole entry): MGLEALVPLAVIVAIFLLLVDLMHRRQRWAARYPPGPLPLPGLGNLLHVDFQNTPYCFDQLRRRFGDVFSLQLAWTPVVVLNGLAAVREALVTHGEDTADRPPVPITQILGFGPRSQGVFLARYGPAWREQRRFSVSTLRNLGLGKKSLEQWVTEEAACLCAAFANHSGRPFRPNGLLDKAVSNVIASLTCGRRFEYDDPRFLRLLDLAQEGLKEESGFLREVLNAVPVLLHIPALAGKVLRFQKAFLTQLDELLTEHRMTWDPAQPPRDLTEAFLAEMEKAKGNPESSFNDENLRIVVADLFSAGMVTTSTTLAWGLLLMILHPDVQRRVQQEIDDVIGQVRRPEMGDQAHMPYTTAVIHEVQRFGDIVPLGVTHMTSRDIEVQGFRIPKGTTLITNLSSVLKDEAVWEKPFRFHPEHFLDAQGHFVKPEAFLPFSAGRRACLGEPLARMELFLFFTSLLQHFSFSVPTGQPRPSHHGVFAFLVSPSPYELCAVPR

[14] = Protein binding in human plasma; assay type: ADME, cell-free; conditions: read-out: PPB (converted)
[15] = Protein binding in mouse plasma; assay type: ADME, cell-free; conditions: read-out: PPB (converted)

Compound | Drug uptake [1] | GI50 [2] [nM] | GI50 [3] [nM] | Activity (3Y1 cell line) | inhibition (INH) (Cytochrome P450 2C9) | IC50 [4] [nM] | inhibition (INH) (Cytochrome P450 3A4 [5]) | t1/2 [6] [min] | remaining at 24 h [7] [%] | remaining at 24 h [8] [%] | t1/2 [9] [min] | t1/2 [10] [min] | fraction unbound [11] | remaining at 24 h [12] [%] | inhibition (INH) (Cytochrome P450 3A4 [13]) | inhibition (INH) (Cytochrome P450 2D6) | fraction unbound [14] | fraction unbound [15] | fold change (FC) (3Y1 cell line)
C/C=C/C[C@H](C)[C@@H](O)[C@@H](C)[C@H](O)C[C@H]1OC(=O)C=C[C@H]1CC | Active | 82.3 | 29.6 | Toxic |  |  |  |  |  |  |  |  |  |  |  |  |  |  | 
C/C=C/C[C@H](C)[C@@H](OC)[C@@H](C)[C@H](O)C[C@H]1OC(=O)C=C[C@H]1CC [PIRONETIN] |  | 22.3 | 22.2 |  | Active | 26 | Active | < 15 | 50 | 35 | 7 | < 15 | 0.07 | 56 | Active | Active | 0.13 | 0.02 | 
CC[C@@H]1C=CC(=O)O[C@@H]1C[C@@H](O)[C@H](C)[C@H](OC)[C@@H](C)C[C@@H]1O[C@H]1C (relative stereo) | Active | 1010 | 218 |  |  | 540 |  |  |  |  |  |  |  |  |  |  |  |  | 25
